Test results from a melting point compilation (Tetko et al.; mined from patent text by program, amines drawn as free bases though some values may be those of a salt).

melting point [°C] | SMILES
198 to 199 | CCCCNc1c(NCc2ccccc2)cc(C(=O)O)cc1S(N)(=O)=O
122 to 123 | O=C(O)CCc1oc(Sc2nncn2-c2ccccc2)nc1-c1ccc(Cl)cc1
116 to 117 | O=CC(=Cc1ccccc1OCc1ccc([N+](=O)[O-])cc1)C(C=O)=Cc1ccccc1OCc1ccc([N+](=O)[O-])cc1
251 to 253 | NC(=O)Cc1cnc2c(NC(=O)c3c(Cl)cccc3Cl)cccc2c1
> 250 | COc1ccc(C(=O)Nc2c(Cl)cncc2Cl)c2c1oc1ccc(NC(=O)NCC(=O)O)cc12
100 | Cc1ccc(COC(=O)C(=O)OCc2ccc(C)cc2)cc1
230 | Sc1ccc(-c2nc3cnccc3[nH]2)cc1
140 to 143 | CS(=O)(=O)c1ccc(-c2sc(COc3ccc(Cl)cc3)nc2-c2ccc(F)cc2)cc1
114 to 115 | O=c1ccc(C(F)(F)F)cn1Cc1ccccc1NCCO
129 to 131 | COc1ccc(N2CCN(c3c(C)c(C)c4c(c3C)C(O)(c3ccc(F)nc3)C(C)(C)O4)CC2)cc1 (stereo not drawn)
91 to 93 | COC1=C(OC)C(=O)C2=C(CC(CCCCCCCCN3C(=O)c4ccccc4C3=O)C2)C1=O
158 to 161 | CCCCCSc1ncccc1C(=O)NCCCCn1cnc2c(N)nc3ccccc3c21
282 | O=c1[nH]c2cc(Cl)cc(Cl)c2c(O)c1Sc1ccc(NC(=S)NCc2ccccc2)cc1
37 to 51 | COC(=O)CCc1cc2cc(C(=O)c3ccccc3)ccc2n1S(=O)(=O)c1ccccc1
133 to 135 | COc1cccc([C@H]2O[C@H](CC(=O)NS(=O)(=O)CCCO)C(=O)N(CC(C)(C)CO)c3ccc(Cl)cc32)c1OC
103 to 104 | COc1ccc(C(C#Cc2ccccc2)Cc2ncc(C)o2)cc1OC1CCCC1 (racemic)
107 to 108 | COC(=N)c1ccc(-c2ccccc2[N+](=O)[O-])o1
145 to 146 | Cc1cccc2c1nc(COc1ccc(Cl)cc1)n2CCC(C)C(=O)NNCc1ccccc1 (racemic)
202 to 204 | CCCc1c(CNc2ccc(C(=O)O)cc2)ccc(C(C)=O)c1O
115 to 116 | NC(=O)COc1cccc(CCNS(=O)(=O)c2ccc(Br)cc2)c1
178 to 180 | CC(C)CC(CO)NC(=O)C(Cc1cn(NC(=O)OCc2ccccc2)cn1)NC(=O)CCCc1ccccc1 (single isomer, unassigned; (-))
175 to 177 | O=C(NCC(=O)N1CCCC1)c1ccc(-c2ccc3nnn(Cc4ccc5ncccc5c4)c3n2)cc1F
123 | N#CCC(O)(c1ccc(Cl)cc1)c1ccc(-c2ccc(Cl)cc2)cc1 (stereo not drawn)
185 to 190 | COc1ccc(C(=O)c2coc(C(=O)O)cc2=O)cc1
187 to 189 | Cc1cccc(NC(c2cccc(O)c2)c2ccc3cccnc3c2O)n1 (stereo not drawn)
55.5 to 56.5 | CC(C)(C)OC(=O)NCc1ccccc1

melting point [°C] | SMILES
230 to 232 | NC(=O)Nc1ccc2oc([N+](=O)[O-])c(-c3ccccc3)c2c1
197 to 202 | CCC1Cn2c(ncc(C(N)=O)c2=O)-c2ccccc21 (stereo not drawn)
192 to 193 | Oc1ccc2c(c1)CCCC(c1ccccc1)=C2c1ccc(OCCCCCI)cc1
108 to 109 | COCCNC(=O)c1cc(F)cc(-c2cccc3cc(Cc4ccc(F)c(Cl)c4)sc23)c1
221 to 223 | Cc1cccc(OC2=NS(=O)(=O)N=C(Oc3cccc(C)c3)N2C)c1
162 to 165 | CC(C)c1ccc2c(c1)c(Sc1ccccc1)c(CC(C)(C)C(=O)O)n2Cc1ccc(Cl)cc1
145 to 150 | CCN(CC)CCc1ccc(NC(=O)C#Cc2ccc(C(F)(F)F)cc2Cl)cc1
250 to 251 | Cc1ccc(-c2cc(S(=O)(=O)c3ccc(N)cc3)cc(N3CCCC3)n2)cc1
213 to 215 | CC1(C)CNc2cc3[nH]c(-c4cccnc4)nc3cc21
100 to 101 | COc1ccc(C[C@H](NC(=O)[C@H](CC(C)C)NC(=O)OCc2ccccc2)C(=O)CSC)cc1
68 to 70 | CC(C(=O)O)c1ccc(Oc2ccc(F)cc2)c(Cl)c1 (stereo not drawn)
69 to 70 | CCOC(=O)CCCCCN(NS(=O)(=O)c1ccc(Cl)cc1)C(=O)Nc1cc(OC)cc(C(C)(C)C)c1O
172 to 173 | CS(=O)(=O)c1ccc(-n2nc(C(=O)O)cc2-c2ccc(-c3ccco3)cc2)cc1F
244 to 246 | O=C(O)c1ccc2c(=O)n(Cc3ccc(Cl)cc3Cl)cnc2c1
69.5 to 72.5 | CCOC(=O)c1ccc(NCCCCCCc2ccccc2)cc1
168 to 174 | O=C(N[C@H](Cc1ccccc1)C(=O)O)OCc1cc2cc(-c3ccccc3)ccc2[nH]1
235 to 238 | CCn1nc(-c2ccccc2)c(C(C)=O)c(Nc2cccc3nnc(C)cc23)c1=O
102 to 103 | CCOC(=O)CN=C(c1ccccc1)c1ccccc1NC1CCN(C)CC1
119 to 120 | CCOC(=O)C1Cc2cc(C(=O)c3ccccc3F)c(O)c(Cl)c2O1 (stereo not drawn)
144 to 145 | COCCOc1ccc2c(Nc3ccc(Cl)cc3Cl)c(C#N)cnc2c1
219 | COc1cc(F)c(-c2ccc3nc(C(=O)NC(Cc4ccc(OCc5ccccc5)cc4)C(=O)O)cn3c2)c(F)c1 (stereo not drawn)
176 to 178 | CC(=NNC(=N)N)c1cccc(OCc2ccc3ccccc3c2)c1
209 to 211 | COc1ccc(C(C)(C)C)cc1NC(=O)Nc1ccc(-c2cnc3c(c2)NC(=O)CS3(=O)=O)c2ccccc12
140 to 145 | CCc1cc(C(=O)c2ccccc2Cl)c(-n2c(C)nnc2CNC(=O)c2c[nH]c3ccccc23)s1
85 to 87 | CCCc1c(OCCCCCCc2ccc(C(C)(C)C)c(O)c2O)ccc(C(=O)O)c1O

Second part, the molecule before the results:

SMILES | melting point [°C]
O=C(Nc1c[nH]nc1C(=O)NC1CCCC1)c1ccccn1 | 240 to 241
CCOC(=O)C(=CC(=CN(C)C)C(=O)C(=O)OC)Sc1ccccc1 | 118
O=C1CCc2c(Br)cc(F)cc21 | 129 to 131
CN(CC(O)c1ccc(Br)cc1)C(=O)OC(C)(C)C (stereo not drawn) | 80 to 82
O=Cc1cc(F)cc2c1OCCC2 | 55 to 57
C=C(C)C(=O)OCCOc1ccc(C(=O)O)cc1 | 146
CC(c1ccccc1)N1C(=O)NC(=O)C1O (stereo not drawn) | 139 to 140
O=Cc1cccnc1S(=O)(=O)c1ccc(Cl)cc1 | 100 to 101
CCOC(=O)c1cnoc1-c1ccc(Cl)c(Br)c1 | 109 to 110
CCN(C(C)=O)c1cccc(-c2ccn3ncc(C#N)c3n2)c1 | 194 to 196
Cc1c[nH]c2c(=O)n(CC(=O)N[C@H](C=O)CC(=O)O)cnc12 | 222 to 226
CC(=O)OC1CCC2(C)C3CCC4(C)C(C(C)CCCC(C)(C)O)CCC4C3CCC2(O)C1 (stereo not drawn) | 180 to 182
CC(=O)NCC1CC(c2ccc(-n3ccnc3)c(F)c2)=NO1 (stereo not drawn) | 155 to 156
COc1ccc2c(c1)CCC1C2CCC2(C)C(=O)C=C(C(C)C)C12 (stereo not drawn) | 113 to 116
N#Cc1cc(C(=O)N2CCC[C@H](c3nc(-c4ccc(F)cc4)no3)C2)ccc1F | 144 to 146
CC1(C)OC[C@@H]([C@@H]2CC(=O)N2)O1 | 91 to 92
COC(=O)c1ccc2cc(-c3ccc4c(c3)C(C)(C)CCC4(C)C)n(C)c2c1 | 156
N#Cc1nc(Cl)c(Cl)c(NN)c1Cl | 178 to 181
CC(C=CC(C)C(C)(C)O)C1CCC2C(=O)CCCC21C (stereo not drawn) | 101 to 102
Cc1nc(C(F)(F)F)ccc1C(Cl)=C1C(=O)C(C)(C)C(=O)C(C)(C)C1=O | 92.5 to 93
c1ccc2c(c1)SCCc1c-2n(CCN2CCCCC2)c2ccccc12 | 118
C#Cc1nc(NOC)c2ncn([C@@H]3O[C@H](CO)[C@@H](O)[C@H]3O)c2n1 | 165 to 167
CCCc1c(OCCOCCOc2c(C(C)=O)ccc(OCC(=O)O)c2CCC)ccc(C(C)=O)c1O | 96 to 99
Cc1cc(C)c(CC(=O)O)cc1C | 123 to 125

SMILES | melting point [°C]
CN1CCN(c2ccc(F)cc2C=C2CCCN(c3ccc(F)c(F)c3)C2=O)CC1 | 168 to 170
O=C(Cc1ccc(Cl)cc1)c1cccc(S(=O)(=O)N2CCCCCC2)c1 | 135 to 136
CCN(CC)CCn1c2c(c3ccccc31)CCS(=O)(=O)CCC2 | 118 to 120
N#Cc1cc(F)c(NC(=O)CC(=O)C(F)(F)F)cc1F | 176 to 181
CCOc1ccc(-c2ccc(Br)cc2)cc1 | 139
CC(C)(O)[C@H]1C[C@@H](C(=O)O)C1(C)C | 98 to 99
CC(C)Oc1ncc(OC(=O)C2(C)CC2)cc1Cl | 116 to 117
CC(C)(C)c1cc(Cc2nc(S)n[nH]2)cc(C(C)(C)C)c1O | 184 to 185
COC(=O)c1cccc(OC(F)(F)C(F)Br)c1 (stereo not drawn) | 88 to 90
CC(C)c1nc(O)cc(=O)n1C | 159
CCOc1c(NCc2ccc(C#N)c(CC)c2)c(=O)c1=O | 239 to 242
Cc1nnsc1C(=O)Nc1ccc(-n2nc(C(F)(F)F)c(Cl)c2C2CC2)c(F)c1 | 143 to 147
O=C1C=CC(O)(c2ccc(OCCCCl)cc2)O1 (stereo not drawn) | 219 to 220
Cc1nc(C(C)C)c(Sc2cc(Cl)cc(Cl)c2)n1C | 95 to 96
Cc1ccc(-c2cc(C(=O)O)nn2Cc2ccc(F)cc2)cc1C | 141
COc1cccc(-c2nnc(-c3ccoc3)o2)c1 | 70 to 71
C#CCS(=O)(=O)c1cc([N+](=O)[O-])ccc1Cl | 238 to 241
CC(C(=O)O)c1ccc(CC(C)C(C)O)cc1 (stereo not drawn) | 85 to 88
O=C(Nc1ccnc(Br)c1)C1(O)CCCC1 | 153
COc1ccc(S(=O)(=O)C2(C(=O)O)CCN(C3CCCCCCC3)CC2)cc1 | 180
O=C(c1ccc([N+](=O)[O-])cc1)c1ccc2c(n1)C(O)CCCN2 (stereo not drawn) | 182 to 185
COC(=O)C(C)=C1CCC2C3CCC4=CC(=O)CCC4(C)C3CCC12C (stereo not drawn) | 149 to 151
CCCN(CCC)c1c(C#N)cnn1-c1ccc(Cl)c(Cl)c1Cl | 99 to 100
